# “Also recorded” adds a separate entry of the source.
# Assays:
# [1] = target: guanase; details: in tissue cultures; cited from earlier work
# [2] = Chemical stability in aqueous medium; format: physicochemical
# [3] = target: T1, guanase from rabbit liver (Oryctolagus cuniculus, UniProt G1T386); format: biochemical
# T1 sequence (G1T386 1-454): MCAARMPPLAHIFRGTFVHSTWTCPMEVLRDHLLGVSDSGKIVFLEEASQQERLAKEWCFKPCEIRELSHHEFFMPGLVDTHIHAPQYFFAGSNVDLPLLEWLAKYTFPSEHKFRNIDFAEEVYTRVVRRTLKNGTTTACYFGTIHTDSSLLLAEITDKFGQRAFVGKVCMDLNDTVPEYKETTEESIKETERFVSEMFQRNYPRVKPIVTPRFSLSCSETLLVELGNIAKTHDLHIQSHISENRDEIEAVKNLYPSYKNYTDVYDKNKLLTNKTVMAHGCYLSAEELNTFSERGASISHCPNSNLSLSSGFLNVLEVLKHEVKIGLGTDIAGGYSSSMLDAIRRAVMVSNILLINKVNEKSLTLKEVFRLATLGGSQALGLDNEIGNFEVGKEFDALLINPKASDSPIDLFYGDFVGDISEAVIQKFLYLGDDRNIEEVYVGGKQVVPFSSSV
smiles,measurement,setting,value
O=C1NC(O)CNc2nc[nH]c21 (centres unmarked) [Azepinomycin],IC50,[1],~5 µM
"O=C1NCC(O)Nc2c1ncn2Cc1ccccc1 (centres unmarked) [Compound 1, 3-Benzyl-5-hydroxy-4,5,6,7-tetrahydroimidazo[4,5-e] [1,4]diazepin-8(3H)-one]",Stability in aqueous acidic environment,[2]; aqueous acidic environment (1N HCl),reasonably stable
same,Stability under neutral conditions,[2]; neutral aqueous medium,quite unstable and decomposed; also recorded: decomposes in neutral aqueous medium over time
"COC1CNC(=O)c2nc[nH]c2N1Cc1ccccc1 (centres unmarked) [Compound 9, 4-Benzyl-5-methoxy-4,5,6,7-tetrahydroimidazo[4,5-e][1,4]diazepin-8(3H)-one]",Ki,[3]; Ki,~8 µM
"Nc1nc2nc[nH]c2c(=O)[nH]1 [guanine, reference compound]",Km,"[3]; read-out: KM of enzyme with guanine as substrate, 25 °C, pH 7.4",5.5 µM
